Read-outs that look alike come from different tables or passages of the source.
Experiments:
HIV-1 virus [1] = test: Effect of the products on the infectious potency of the HIV-1 virus in human T lymphocytes (reverse transcriptase activity); format: cell-based, HIV-1 virus (LAV strain); settings: treatment after viral absorption (FIG. 2)
Protocol: (§1) Each product was dissolved in DMSO at a concentration of 10^-3 M (stock solution), then in the culture medium immediately before use. The solution thus obtained was sterilized by filtration on a 0.22μ Millipore, then successive dilutions were made in the culture medium.
The cultures of human T lymphocytes are maintained in the medium RPMI 1640 containing 10% fetal calf serum (Seromeal), 1% of glummine (Gibco), 1% of antibiotics (PSN, Gibco), 10% of interleukin II (Biotest), 2 μg/ml of polybrene (Sigma) and a 1/2500 dilution of α-human semm-interferon. This medium is called complete medium. […]
Human lymphocytes stimulated beforehand by means of pHAp were infected by the HIV-1 virus (reverse transcriptase activity: 5000 cmp/10^6 cells). […] The viral production was monitored at each passage (and this for 13 days) by measuring the reverse transcriptase activity present in 1 ml of culture supernatant. […]
The production of the HIV-1 virus by human T cells treated or not by each product was regularly monitored by measuring the reverse transcriptase activity present in 1 ml of culture supernatant. […] After 1 hour of incubation of 37° C., the acid-insoluble products are precipitated by 20% trichloroacetic acid, filtered on 0.45μ Millipore, then the β radioactivity contained in these reaction products is measured with the aid of a Kontron scintillation counter.

HIV-1 virus [2] = test: Action of the products on the cytopathogenic effect of the HIV-1 virus in MT4 cells; format: cell-based, HIV-1 virus (LAV strain); settings: for minimal effective concentration: Human immunodeficiency virus 1, MT4, 168 h
Protocol: as §1
The line of MT4 cells is cultivated at a concentration of 3×10^5 cells/ml in a RPM1640 medium containing 10% of fetal calf serum, 1% of antibiotics and 1% of glummine.
The action of the products on the cytopathogenic effect of the HIV-1 virus was studied with the aid of the line of MT4 cells. This line is a line of human T cells transformed by the HTLV-1 virus. These cells are particularly sensitive to the HIV-1 virus since 6 to 7 days after superinfection by tiny quantities of HIV-1 virus, they show a considerable cytopathogenic effect leading to the death of 10 to 80% of the cells. The cytopathogenic effect is directly correlated with the infection of the cells by the virus, with its intracellular replication and with the expression of the viral antigens by the cells. An inhibition of this effect thus corresponds to an inhibition of the multiplication of the HIV-1 virus.
It is a question of supernatants of lymphoblastoid T cells (CEM line) infected by the HIV-1 virus (LAV strain). The activity of the undiluted viral preparation used for the human lymphocytes was 20000 cpm/ml.
d) Action of the products on the cytopathogenic effect of the HIV-1 virus in the case of the MT4 cells. Study of the treatment after viral absorption.
The MT4 cells were infected by 100 μl of HIV-1 virus for 3.10^5 cells in a volume of 1 ml. […]
At day +3, the cell suspensions were restored to 3.10^5 cells/ml after dilution with fresh medium. The product was added at the corresponding doses.
At day +7, the cytopathogenic effect was evaluated with the microscope after staining with trypan blue.

Row | SMILES | inhibition of the multiplication of the virus (HIV-1 virus [1]; 10^-5 M) | Cytopathogenic Effect at Day +7 (HIV-1 virus [2]; 5 × 10^-6 M, Experiment No. 1) | Cytopathogenic Effect at Day +7 (HIV-1 virus [2]; 5 × 10^-6 M, Experiment No. 2) | Cytopathogenic Effect at Day +7 (HIV-1 virus [2]; 5 × 10^-7 M, Experiment No. 1) | Cytopathogenic Effect at Day +7 (HIV-1 virus [2]; 5 × 10^-7 M, Experiment No. 2) | Cytopathogenic Effect at Day +7 (HIV-1 virus [2]; 10^-5 M, Experiment No. 1) | Cytopathogenic Effect at Day +7 (HIV-1 virus [2]; 10^-5 M, Experiment No. 2) | Cytopathogenic Effect at Day +7 (HIV-1 virus [2]; 10^-6 M, Experiment No. 1) | Cytopathogenic Effect at Day +7 (HIV-1 virus [2]; 10^-6 M, Experiment No. 2) | minimal effective concentration (HIV-1 virus [2]; first experiment, MT4 cells, read-out: concentration at which the product inhibits the cytopathogenic effect) [µM] | minimal effective concentration (HIV-1 virus [2]; second experiment, MT4 cells, read-out: concentration at which the product inhibits the cytopathogenic effect) [µM] | inhibition of the multiplication of the virus (HIV-1 virus [1]; dose proportional) | minimal effective concentration (HIV-1 virus [2]; read-out: concentration at which the product inhibits the cytopathogenic potency of the virus) [µM]
1 | CCCCCCCCCCCCCCCCOP(=O)(OC[C@H]1OC(O)[C@H](O)[C@@H](O)[C@@H]1O)OC[C@H]1O[C@@H](n2cc(C)c(=O)[nH]c2=O)C[C@@H]1N=[N+]=[N-] (stereo partly shown) [compound 6651, 6-glucosyl hexadecyl 5'-(3'-azido) thymidinyl phosphate] | total inhibition of the multiplication of the virus | - | + (100% death of the cells at day +7) | + (100% death of the cells at day +7) | + (100% death of the cells at day +7) | - | - | - | + (100% death of the cells at day +7) | 1 | 10 |  | 
2 | Cc1cn([C@H]2CC[C@@H](COP(=O)(O)OC[C@H]3OC(O)[C@H](O)[C@@H](O)[C@@H]3O)O2)c(=O)[nH]c1=O (stereo partly shown) [compound 6714, 6-glucosyl 5'-(3'-deoxy)-thymidinyl phosphate] |  |  | + (100% death of the cells at day +7) |  |  |  | - |  | + (100% death of the cells at day +7) |  |  | partial inhibition proportional to the dose of the product used | 10

— patent US5393744A, “Glucosyl phosphotriesters of thymidine” (Institut Pasteur, priority 1988, dated 1995)
